Experimental data taken from PubChem BioAssay AID1996.
≈ marks a conversion by molar mass, not a printed value.

settings: buffer; pH 7.4; 200.0 µM

Structure (SMILES)	solubility kinetic [µg/mL]
CCOC(=O)C1CCN(Cc2ccc(-c3ccccc3)cc2)CC1	25.6 (≈ 79.2 µM)
Cc1ccc(OCCNC(=O)CCc2ccccc2)cc1C	12.9 (≈ 43.4 µM)
O=C(COc1ccc(F)cc1F)Nc1cccnc1	36.2 (≈ 137 µM)
O=C(CS(=O)(=O)c1ccc(F)cc1)N1CCOCC1	> 43.1
COc1ccc(C(=O)NCC(=O)c2ccccc2)cc1	> 40.4
CN1C(CC(=O)Nc2ccc(Cl)cc2Cl)c2ccccc2CC1(C)C (configuration not stated)	10 (≈ 26.5 µM)
CC(C)C(NS(=O)(=O)c1ccccc1)C(=O)NC1CCCC1 (configuration not stated)	> 48.7
O=C(NCc1csc2ccc(Cl)cc12)Nc1ccccc1	< 0.3
S=C(c1ccc(-c2ccc(Br)cc2)o1)N1CCCCC1	< 0.8
O=C1Nc2ccccc2Sc2ccccc21	1.2 (≈ 5.28 µM)
COc1ccc(/C=C/C(=O)O)cc1S(=O)(=O)NCc1ccco1	48.8 (≈ 145 µM)
CC(=O)c1cccc(NC(=O)c2nc(-c3ccccc3)oc2C)c1	12.1 (≈ 37.8 µM)
O=C(NC(=S)NC1CCSC1=O)c1cccc([N+](=O)[O-])c1 (configuration not stated)	43.2 (≈ 133 µM)
Cc1cc(C)c(C)c(S(=O)(=O)NCCCN2CCOCC2)c1C	> 51.1
CCOc1ccc2oc(C(=O)N3CCCN(C)CC3)c(C)c2c1.Cl	> 52.9
O=C(CSc1nc2ncc(Cl)cc2[nH]1)c1ccc2c(c1)OCO2	1.8 (≈ 5.18 µM)
N/C(=N\OC(=O)/C=C/c1ccccc1Cl)c1cccnc1	14.9 (≈ 49.4 µM)
COc1ccc(-c2ccccc2)cc1NC(=O)c1cccs1	1.2 (≈ 3.88 µM)
Cc1ccc(-c2ccc(S(=O)(=O)N3CC(C)OC(C)C3)cc2)cc1 (configuration not stated)	< 0.7
CC(=O)Nc1ccc(N2C(=O)CC(Sc3nccc(C)n3)C2=O)cc1 (configuration not stated)	> 53.5
Cc1ccc(C(=O)N(C)CC(=O)Nc2ccc(F)c(F)c2F)o1	> 48.9
COc1ccc(CNC(=O)c2cc(=O)c3cc(C)cc(C)c3o2)cc1	< 0.7
O=C1CC(NC(=O)c2ccc(Cl)cc2)C(=O)N1 (configuration not stated)	> 37.9
CN1CC(C(=O)c2ccc(Cl)cc2)C(c2ccccc2)C1 (configuration not stated)	40.1 (≈ 134 µM)
Cn1c(/C(C#N)=C(\O)c2ccc([N+](=O)[O-])s2)nc2ccccc21	< 0.2

Structure (SMILES)	solubility kinetic [µg/mL]
CSc1nc(N)nc(C2CC2)n1	24.4 (≈ 134 µM)
C/C(=N\NC(=O)c1ccc(Cl)cc1)c1cccnc1	> 41.1
COc1ccc(CN(C)C(C)C(=O)Nc2cccc3ccccc23)cc1 (configuration not stated)	7.8 (≈ 22.4 µM)
O=C(O)c1cnn2c(-c3ccccc3)ccnc12	> 35.9
Cc1[nH]c2ccc3ccccc3c2c(=O)c1C/C=C/Cl	1.1 (≈ 3.88 µM)
Cc1noc(C)c1C(=O)Nc1cccc2ncccc12	> 40.1
CC(=O)Nc1nc2c(ccc3ccccc32)s1	0.9 (≈ 3.71 µM)
O=C(Nc1ccc([N+](=O)[O-])cc1)N1CCCCCC1	> 39.5
O=C(COc1ccc(C(=O)c2ccccc2)cc1)Nc1ncccc1O	24.9 (≈ 71.5 µM)
N#Cc1ccc(C(=O)Nc2nc3ccccc3[nH]2)cc1	2.6 (≈ 9.91 µM)
COc1cccc(CNc2ccc3c(c2)nc(C)n3C)c1OC	44.8 (≈ 144 µM)
COc1ccc(-c2cc3ccccc3nc2N)cc1OC	3 (≈ 10.7 µM)
N#Cc1c(N2CCCC2)ccc(Br)c1Cl	< 0.3
CC(C)CCNC1c2ccccc2C(=O)N1Cc1ccccc1.Cl (configuration not stated)	6.2
CCOC(=O)Cn1c2ccccc2c2nc(C)sc21	> 41.2
Cc1cc(NC(=O)COC(=O)c2cnccn2)ccc1Br	> 52.5
CC1CN(C(=O)COC(=O)c2ccc3ncsc3c2)CC(C)O1 (configuration not stated)	> 50.2
Fc1ccccc1CNC(=S)NCc1ccc(Cl)cc1	3.3 (≈ 10.7 µM)
COc1ccc(CNC(=O)c2sc(=S)n(-c3ccccc3)c2N)cc1	0.7 (≈ 1.88 µM)
O=C(COC(=O)Cc1ccc(S(=O)(=O)N2CCOCC2)s1)Nc1ccccc1Cl	> 68.8
CC1(NC(=O)CCc2nc3ccccc3c(=O)[nH]2)CCS(=O)(=O)C1 (configuration not stated)	49.2 (≈ 141 µM)
OCCC1CN(CC2CCCCC2)CCN1C1CCCC1 (configuration not stated)	40.8 (≈ 139 µM)
CC(C)c1ccc(C(=O)Nc2cccnc2)cc1	> 36
O=C(COC(=O)c1cc(Cl)nc(Cl)c1)NC1CCCCCC1	5.9 (≈ 17.1 µM)
O=C1OC(c2ccccc2)=N/C1=C\C=C\c1ccco1	2 (≈ 7.54 µM)

Structure (SMILES)	solubility kinetic [µg/mL]
C(=N\Nc1ccccn1)/c1cccnc1	> 29.7
O=C(CN1CCN(Cc2ccccc2)CC1)Nc1ccccc1	> 46.4
O=C1CN(C(=O)c2ccc(Cl)nc2)c2ccccc2N1	33.3 (≈ 116 µM)
Cc1nc(NC(=O)CN2CCOCC2)sc1C(=O)N(C)C	40 (≈ 128 µM)
COc1ccc(C2(CNS(=O)(=O)c3ccccc3)CCOCC2)cc1	46.6 (≈ 129 µM)
COc1ccc(NC(=O)COC(=O)CNC(=O)C2CCCCC2)cc1OC	> 56.8
Cl.Nc1ccn([C@H]2C[C@H](O)[C@@H](CO)O2)c(=O)n1	> 39.6
COc1ccc(CCNC(=O)C(=O)NCc2cccs2)cc1OC	21.4 (≈ 61.4 µM)
COC(=O)C(O)(c1ccc(N(C)C)cc1)C(F)(F)F (configuration not stated)	38 (≈ 137 µM)
O=C(COC(=O)C1CC1)NC(=O)c1ccccc1	> 37.1
COCC(=O)Nc1ccc(N2CCOCC2)c(S(=O)(=O)Nc2ccc(OC)cc2)c1	> 65.3
CCCNC(=O)c1cc2cc([N+](=O)[O-])ccc2s1	1.4 (≈ 5.3 µM)
COc1ccc(N2CCN(CC(=O)c3ccccc3)CC2)cc1	> 46.6
Brc1ccc(-c2nc(-c3ccncc3)no2)cc1	< 0.2
CC(=O)c1sc(NC(=O)c2ccc(C)c(C)c2)nc1C	< 0.3
COc1ccc2oc(=N)c(C(=O)Nc3ccccc3Cl)cc2c1	0.8 (≈ 2.43 µM)
OCC1(CO)COC(/C=C/c2ccccc2)=N1	> 35
Cc1c(Cc2ccccc2)c(=O)n2c([nH]c3ccccc32)c1C#N	< 0.2
CCN(C(=O)Nc1cccc(Cl)c1)c1ccccc1	18.6 (≈ 67.7 µM)
CCc1sc(C(=O)Nc2nc(C)cs2)cc1C	7.3 (≈ 27.4 µM)
COc1ccc(OC)c(N/C=C/C(=O)c2ccccc2)c1	2.1 (≈ 7.41 µM)
CC(C)(C)c1cc(CCC(=O)N2CCC2)cc(C(C)(C)C)c1O	42.6 (≈ 134 µM)
C=CCC1(/C=N/O)CCOC(C)(C)C1 (configuration not stated)	> 29.6

The remaining lines, values ahead:

solubility kinetic [µg/mL]	Structure (SMILES)
31.1 (≈ 121 µM)	COc1ccc(S(=O)(=O)N2CCNCC2)cc1
16.5 (≈ 66.5 µM)	O=C(Nc1ccncc1)c1ccc2ccccc2c1
> 40.4	Cc1cc(O)c(C2(O)C(=O)Nc3ccccc32)cc1C (configuration not stated)
48.8 (≈ 146 µM)	O=C(NCCN1CCOCC1)C1CC(=O)N(c2ccc(F)cc2)C1 (configuration not stated)
1.1 (≈ 3.25 µM)	Fc1ccc(N2CCN(C3CCC(c4ccccc4)CC3)CC2)cc1 (configuration not stated)
> 38.7	CCOc1ccc2nc(S(N)(=O)=O)sc2c1
> 43.6	O=C(O)[C@H](Cc1ccccc1)NC(=O)N1CCCCCC1
8.6 (≈ 31.3 µM)	CC(Sc1ccc2ccccc2c1)C(=O)NC(N)=O (configuration not stated)
0.5	COc1cc([N+](=O)[O-])ccc1Nc1nc(C)cc(C)n1.Cl
> 51.2	C=CCn1c(C)nc2c(sc3nc4c(cc32)COC(C)(C)C4)c1=O
> 67.9	CCOc1cc(CC(=O)N[C@@H](CC(C)C)c2ccccc2N2CCCCC2)ccc1C(=O)O
1.2 (≈ 3.41 µM)	CCCCn1c(-c2cccs2)nc2oc3ccccc3c(=O)c2c1=O
36.9 (≈ 124 µM)	O=S(=O)(NCc1ccccn1)c1ccc2ccccc2c1
0.9 (≈ 2.51 µM)	O=C1c2ccccc2C(Nc2ccccc2)N1Cc1ccc2c(c1)OCO2 (configuration not stated)
25 (≈ 93.5 µM)	c1ccc(-c2ccccc2OCCN2CCCC2)cc1
29.7 (≈ 62.1 µM)	CC1CC(C)CN(C(=O)C(C)N2CCN(S(=O)(=O)c3ccc(Br)s3)CC2)C1 (configuration not stated)
> 44.2	NC(=O)C1CCN(CC(O)CSc2ccccc2)CC1 (configuration not stated)
> 42	C=CCON1C(=O)C(=O)N(OCC=C)[C@H]2CCCC[C@H]21
> 35.8	Cc1ccc(C)c(NC(=S)N(C)CCO)c1
44.2 (≈ 139 µM)	COCCCNC(=O)COc1ccc2oc3c(c2c1)CCCC3
> 33	Cc1ccc(CN2C(=O)CNC2=S)cc1
42.9 (≈ 142 µM)	COc1ccc(CCNC(=O)Oc2ccccc2)cc1OC
6.2 (≈ 19.5 µM)	Cc1ccsc1C(=O)OCC(=O)NCCCc1ccccc1
3.4 (≈ 11.3 µM)	Cc1cc2oc(=O)cc(CN3CCOCC3)c2cc1C(C)C
> 42.2	CC1Cc2ccccc2N1C(=O)c1ccc2c(c1)OCO2 (configuration not stated)

solubility kinetic [µg/mL]	Structure (SMILES)
18.4 (≈ 52 µM)	COc1ccc(NC(=O)CCS(=O)(=O)c2ccc(Cl)cc2)cc1
> 45	O=C(NCCc1c[nH]c2ccccc12)c1ccc(F)cc1F
36 (≈ 122 µM)	Cc1cccc(OC(C)C(=O)N2CCc3ccccc3C2)c1 (configuration not stated)
45.4 (≈ 146 µM)	CC1C(=O)C(C)C(c2ccc(O)cc2)NC1c1ccc(O)cc1 (configuration not stated)
> 35.8	COCCCNC(=S)Nc1ccc(C)cc1
6.7 (≈ 22.2 µM)	O=C1Nc2ccccc2C1=Nc1ccc(Br)cc1
< 0.8	C=CCOc1ccc(/C=C/C(=O)OCC(=O)NC2CCCCCCC2)cc1
8.3 (≈ 23.8 µM)	CC(C)c1ccc(OC(=O)c2ccc3c(=O)n4c(nc3c2)CCC4)cc1
1.5 (≈ 5.69 µM)	Cc1c(Cl)cccc1NC(=O)C1CC2CCC1C2 (configuration not stated)
> 38.9	CC(C)N(Cc1ccccc1)C(=O)c1cccs1
15 (≈ 48.2 µM)	Oc1cccc(C(=S)N2CCC(Cc3ccccc3)CC2)c1
23.6 (≈ 71.2 µM)	NS(=O)(=O)c1ccc(NC(=O)CN2CCc3ccccc32)cc1
14.5 (≈ 38.4 µM)	O=C(CN1C(=O)NC2(CCCC2)C1=O)NC(c1ccccc1)c1ccccc1
36 (≈ 128 µM)	CN(CC(=O)Nc1ccc(Cl)cc1)C1CCCCC1
33.3 (≈ 143 µM)	Cc1ccc(O)c(NC(=O)C2CCCCC2)c1
3.3 (≈ 10.9 µM)	COc1ccccc1CNC(c1ccccc1)c1ccccc1
> 53.6	Cc1ccsc1CN(C)CC(=O)Nc1ccccc1C(=O)NC1CC1
28.8 (≈ 131 µM)	OCc1ccccc1CN1CCCCCC1
> 36.3	Cc1cc(Cc2ccc([N+](=O)[O-])cc2)c(C)cn1
> 47.8	CC#CC[N+](C)(C)CCCCCCCCCC.[Br-]
> 42.7	Cc1ccc(/C=N/NC(=O)c2ccc3nc[nH]c3c2)s1
31.2 (≈ 124 µM)	CCOC(=O)N1CCc2c(sc(N)c2C#N)C1
16.4 (≈ 51 µM)	N#Cc1ccc(NC(=O)CN2CCN(c3ccccn3)CC2)cc1
3.1	Cc1ccc(C(C)C)c(OCCCN2CCc3ccccc3C2)c1.Cl
